From patent US9988635B2, “Modulation of growth hormone receptor expression and insulin-like growth factor expression” (Antisense Therapeutics Limited, priority 2003, dated 2018)
In the oligonucleotide strings, read from the 5' end, every base follows the letter of its sugar. An asterisk marks phosphorothioate; unmarked linkages are phosphodiester. Other units and linkages are bracketed, terminal groups are in braces. A string of capitals states the bases alone. e = 2'-O-(2-methoxyethyl) (MOE); [5mC] = 5-methylcytosine; d = 2'-deoxy (DNA)

What was measured:
[1] = test system: mouse growth hormone receptor mRNA; assay: Inhibition of mouse growth hormone receptor mRNA levels in b.END cells, quantitative real-time PCR, incl. dose-response; format: cell-based; settings: averages from three experiments
Protocol: (§1) The mouse brain endothelial cell line b.END was obtained from Dr. Werner Risau at the Max Plank Instititute (Bad Nauheim, Germany). b.END cells were routinely cultured in DMEM, high glucose (Gibco/Life Technologies, Gaithersburg, Md.) supplemented with 10% fetal calf serum (Gibco/Life Technologies, Gaithersburg, Md.). Cells were routinely passaged by trypsinization and dilution when they reached 90% confluence. Cells were seeded into 96-well plates (Falcon-Primaria #3872) at a density of 3000 cells/well for use in RT-PCR analysis.
(§2) When cells reached 65-75% confluency, they were treated with oligonucleotide. For cells grown in 96-well plates, wells were washed once with 100 μL OPTI-MEM™-1 reduced-serum medium (Invitrogen Corporation, Carlsbad, Calif.) and then treated with 130 μL of OPTI-MEM™-1 containing 3.75 μg/mL LIPOFECTIN™ (Invitrogen Corporation, Carlsbad, Calif.) and the desired concentration of oligonucleotide. Cells are treated and data are obtained in triplicate. After 4-7 hours of treatment at 37° C., the medium was replaced with fresh medium. Cells were harvested 16-24 hours after oligonucleotide treatment.
(§3) Total RNA was isolated using an RNEASY 96™ kit and buffers purchased from Qiagen Inc. (Valencia, Calif.) following the manufacturer's recommended procedures. Briefly, for cells grown on 96-well plates, growth medium was removed from the cells and each well was washed with 200 μL cold PBS. 150 μL Buffer RLT was added to each well and the plate vigorously agitated for 20 seconds. 150 μL of 70% ethanol was then added to each well and the contents mixed by pipetting three times up and down. The samples were then transferred to the RNEASY 96™ well plate attached to a QIAVAC™ manifold fitted with a waste collection tray and attached to a vacuum source. Vacuum was applied for 1 minute. 500 μL of Buffer RW1 was added to each well of the RNEASY 96™ plate and incubated for 15 minutes and the vacuum was again applied for 1 minute. An additional 500 μL of Buffer RW1 was added to each well of the RNEASY 96™ plate and the vacuum was applied for 2 minutes. 1 mL of Buffer RPE was then added to each well of the RNEASY 96™ plate and the vacuum applied for a period of 90 seconds. The Buffer RPE wash was then repeated and the vacuum was applied for an additional 3 minutes. The plate was then removed from the QIAVAC™ manifold and blotted dry on paper towels. The plate was then re-attached to the QIAVAC™ manifold fitted with a collection tube rack containing 1.2 mL collection tubes. RNA was then eluted by pipetting 140 μL of RNAse free water into each well, incubating 1 minute, and then applying the vacuum for 3 minutes.
(§4) Quantitation of growth hormone receptor mRNA levels was accomplished by real-time quantitative PCR using the ABI PRISM™ 7600, 7700, or 7900 Sequence Detection System (PE-Applied Biosystems, Foster City, Calif.) according to manufacturer's instructions. This is a closed-tube, non-gel-based, fluorescence detection system which allows high-throughput quantitation of polymerase chain reaction (PCR) products in real-time. As opposed to standard PCR in which amplification products are quantitated after the PCR is completed, products in real-time quantitative PCR are quantitated as they accumulate. This is accomplished by including in the PCR reaction an oligonucleotide probe that anneals specifically between the forward and reverse PCR primers, and contains two fluorescent dyes. A reporter dye (e.g., FAM or JOE, obtained from either PE-Applied Biosystems, Foster City, Calif., Operon Technologies Inc., Alameda, Calif. or Integrated DNA Technologies Inc., Coralville, Iowa) is attached to the 5′ end of the probe and a quencher dye (e.g., TAMRA, obtained from either PE-Applied Biosystems, Foster City, Calif., Operon Technologies Inc., Alameda, Calif. or Integrated DNA Technologies Inc., Coralville, Iowa) is attached to the 3′ end of the probe. […]

[2] = test system: human growth hormone receptor mRNA; assay: Inhibition of human growth hormone receptor mRNA levels in MCF7 cells, quantitative real-time PCR; format: cell-based; parameters: concentration or dose not given beside the values; settings: averages from three experiments
Protocol: as §1, with “human breast carcinoma” for “mouse brain endothelial”, “MCF-7” for “b.END”, “from” for “from Dr. Werner Risau at”, “American Type Culture Collection (Manassas, Va.). MCF-7” for “Max Plank Instititute (Bad Nauheim, Germany). b.END”, “DMEM low” for “DMEM, high”, “7000” for “3000”
as §2, §3
as §4, with “probe. When the probe and dyes are intact, reporter dye emission is quenched by the proximity of the 3′ quencher dye.” for “probe.”

Substance	% INHIB of mouse growth hormone receptor mRNA levels [1] [%]	% INHIB of human growth hormone receptor mRNA levels [2] [%]
227472 (antisense eA*eG*eA*eG*e[5mC]*d[5mC]*dA*dA*dG*dG*dG*dA*dA*dG*d[5mC]*eA*eT*e[5mC]*eA*eT) [compound 227472]	42	–
227498 (antisense eT*eT*eG*eT*eA*dA*dA*dA*dA*dT*d[5mC]*dT*dA*dA*d[5mC]*eT*eT*eG*eT*eT) [compound 227498]	49	–
227492 (antisense eT*eA*eA*eA*eA*d[5mC]*dA*dT*dA*dG*dT*dT*dT*dT*dG*eG*eT*eT*eT*eA) [compound 227492]	7	–
227485 (antisense e[5mC]*eG*eT*eG*eG*dT*dG*dT*dA*dG*dT*d[5mC]*dT*dG*dG*eG*eA*e[5mC]*eA*eG) [compound 227485]	45	–
227456 (antisense eG*eT*e[5mC]*e[5mC]*eA*dG*dT*dT*dG*dA*dG*dG*d[5mC]*d[5mC]*dA*eA*eT*eG*eG*eG) [compound 227456]	97	–
227443 (antisense eT*eG*e[5mC]*eT*eT*dG*dG*d[5mC]*dA*dG*d[5mC]*dT*d[5mC]*dG*dT*eG*eG*eG*eT*eT) [compound 227443]	0	–
227497 (antisense eT*eA*eA*eA*eT*dG*dT*dT*dT*dT*dG*d[5mC]*dA*dT*dA*eT*e[5mC]*e[5mC]*eA*eA) [compound 227497]	77	–
227520 (antisense e[5mC]*eA*eT*e[5mC]*eT*dT*dA*dA*dT*d[5mC]*d[5mC]*dT*dT*dG*dG*eA*eA*eA*e[5mC]*eA) [compound 227520]	42	–
227471 (antisense eA*eG*eG*e[5mC]*eA*d[5mC]*dA*dA*dG*dA*dG*dA*dT*d[5mC]*dA*eG*e[5mC]*eT*eT*e[5mC]) [compound 227471]	52	–
227474 (antisense eT*eG*eT*e[5mC]*eG*d[5mC]*dT*dT*dA*d[5mC]*dT*dT*dG*dG*dG*e[5mC]*eA*eT*eA*eA) [compound 227474]	68	–
227457 (antisense eG*eA*eA*eT*eT*dA*dT*d[5mC]*d[5mC]*dA*dT*d[5mC]*d[5mC]*d[5mC]*dT*eT*e[5mC]*eA*eG*eA) [compound 227457]	67	–
227510 (antisense e[5mC]*eT*e[5mC]*e[5mC]*eA*dG*dA*d[5mC]*dG*dT*dG*dA*d[5mC]*d[5mC]*d[5mC]*eG*eA*e[5mC]*eT*e[5mC]) [compound 227510]	64	–
227511 (antisense e[5mC]*e[5mC]*eA*e[5mC]*eG*d[5mC]*dA*d[5mC]*d[5mC]*d[5mC]*dA*d[5mC]*dA*dA*dG*e[5mC]*eG*eG*eA*eT) [compound 227511]	71	–
227454 (antisense eA*eG*eT*eT*eG*dA*dA*dG*dT*dA*dA*d[5mC]*dA*dG*d[5mC]*eT*eG*eT*eT*eT) [compound 227454]	69	–
227507 (antisense eG*eT*e[5mC]*e[5mC]*eT*dT*dG*d[5mC]*dT*d[5mC]*d[5mC]*dA*dG*dG*dT*eT*eA*eG*e[5mC]*eA) [compound 227507]	89	–
227449 (antisense eA*e[5mC]*eG*eA*e[5mC]*dA*d[5mC]*dT*dT*dG*dG*dT*dG*dA*dA*eT*e[5mC]*eG*eA*eG) [compound 227449]	69	–
227516 (antisense eT*eT*eG*eG*e[5mC]*dT*dT*dT*d[5mC]*d[5mC]*d[5mC]*dT*dG*dG*dA*eG*eG*eT*eT*e[5mC]) [compound 227516]	57	–
227505 (antisense eT*eA*e[5mC]*e[5mC]*eT*dG*dA*dG*dA*d[5mC]*d[5mC]*d[5mC]*dA*d[5mC]*dA*eA*eG*e[5mC]*eG*eG) [compound 227505]	39	–
227448 (antisense eT*eT*eT*eG*e[5mC]*d[5mC]*dA*dA*dG*dA*dG*dT*dA*dG*d[5mC]*eT*eG*eG*eT*eG) [compound 227448]	60	–
227509 (antisense eG*e[5mC]*eA*eG*eT*dT*d[5mC]*dT*dA*dT*d[5mC]*dA*dG*dA*dA*e[5mC]*eT*eT*eT*eG) [compound 227509]	82	–
227461 (antisense eT*eG*e[5mC]*eT*eA*d[5mC]*dT*d[5mC]*d[5mC]*dA*dA*dA*dT*dA*dT*eT*e[5mC]*e[5mC]*eA*eA) [compound 227461]	75	–
227459 (antisense e[5mC]*eT*eG*eA*eA*d[5mC]*dT*d[5mC]*dG*d[5mC]*dT*dG*dT*dA*d[5mC]*eT*eT*eT*eT*e[5mC]) [compound 227459]	60	–
227513 (antisense eT*eA*e[5mC]*e[5mC]*eT*dG*dA*dG*dA*d[5mC]*d[5mC]*dT*dG*d[5mC]*dA*eA*eG*eA*e[5mC]*eA) [compound 227513]	40	–
227518 (antisense e[5mC]*eA*e[5mC]*eG*eG*d[5mC]*dT*dT*dA*d[5mC]*d[5mC]*dT*dA*dT*dT*eT*e[5mC]*eG*eT*e[5mC]) [compound 227518]	6	–
272304 (antisense eT*eG*e[5mC]*eT*eA*dA*dG*dG*dA*dT*dA*dG*d[5mC]*dT*dG*e[5mC]*eT*eG*eT*eG) [compound 272304]	–	48
272315 (antisense e[5mC]*eA*eA*eT*eG*dA*dG*dT*dA*d[5mC]*dA*d[5mC]*dT*dG*dG*eA*eA*e[5mC]*eT*eG) [compound 272315]	–	53
272316 (antisense eA*eA*e[5mC]*eT*e[5mC]*dG*d[5mC]*d[5mC]*dA*dT*dA*dA*dT*dT*dT*e[5mC]*e[5mC]*eA*eG*eA) [compound 272316]	–	64
272302 (antisense eG*eA*eT*e[5mC]*e[5mC]*dA*dT*dA*d[5mC]*d[5mC]*dT*dG*dT*dA*dG*eG*eA*e[5mC]*e[5mC]*eT) [compound 272302]	–	60
272350 (antisense eA*eG*eG*e[5mC]*eT*dG*dT*dT*dG*dT*dG*dA*dA*dA*dT*eA*eG*eT*eA*eA) [compound 272350]	–	67
